Laboratory results as given in patent publication US11844785B2, “3-(phenyl)-N-(4-phenoxybenzyl)-1,2,4-oxadiazole-5-carboxamide compounds for the management of CFTR protein mediated diseases” (Emory University, priority 2015, dated 2023).
Where two headings read alike, the source gives them in different places.

Columns and labels:
[1] = target: mCFTR (Mus musculus, UniProt P26361); conditions: cited from earlier work
[2] = target: T1, wildtype human CFTR (WT-hCFTR) (Homo sapiens, UniProt P13569); assay: Two-electrode voltage clamp (TEVC) on Xenopus oocytes expressing WT-hCFTR; type: cell-based; conditions: for Kd: FIG. 2A
T1 construct: expressed in transfected cells; host or cells: Xenopus laevis oocytes injected with cRNA (hCFTR/pGEMHE, gift of D. Gadsby)
Source text: (§1) In order to identify compounds that potentiate F508del-hCFTR expressed in Xenopus oocytes, the effects of IOWH-032 on WT, R352A, and F508del-hCFTR were studied using the two-electrode voltage clamp (TEVC) technique. […] See Drumm et al. Chloride conductance expressed by delta F508 and other mutant CFTRs in Xenopus oocytes. Science, 1991, 254(5039): 1797-1799. Extracellular exposure to IOWH-032 potentiated WT and F508del-hCFTR channels.
Human CFTR cRNAs used in electrophysiology experiments were prepared from constructs encoding WT-hCFTR in the pGEMHE vector (hCFTR/pGEMHE kindly provided by Dr. D. Gadsby, Rockefeller University). The mutants of hCFTR used in this study were prepared using site-directed mutagenesis with the Quikchange protocol (Stratagene, La Jolla, CA) and mutant constructs were verified by sequencing across the entire open reading frame before use. Xenopus laevis oocytes were injected with 0.4-10 ng of CFTR cRNAs, and were incubated at 17° C. in modified Liebovitz's L-15 media with the addition of HEPES (pH 7.5), penicillin, and streptomycin. Recordings were made typically 24-96 hours after the injection of cRNAs.
Standard two-electrode voltage clamp (TEVC) techniques were used to study the effects of chemicals with application of reagents to the extracellular bath. Each oocyte was injected with CFTR cRNA along with cRNA encoding the beta2-adrenergic receptor (β2AR). Electrode resistances measured 0.5-1.4 MΩ when filled with 3 M KCl and measured in standard ND96 bath solution that contained (in mM): 96 NaCl, 2 KCl, 1 MgCl2, and 5 HEPES (pH 7.5). CFTR channels were activated by exposure to 10 μM isoproterenol (ISO) in ND 96 and alternatively assayed in the presence or absence of different concentrations of compounds in the bath solution, typically in the continuing presence of ISO. Currents were acquired with an Axoclamp 900A amplifier and Clampex 10.2 software, and current data were digitized at 2 kHz.

[3] = target: T2, human CFTR with a R352A mutation (Homo sapiens, UniProt P13569, R352A); assay: Two-electrode voltage clamp (TEVC) on Xenopus oocytes expressing R352A-hCFTR; type: cell-based; conditions: FIG. 2B
T2 construct: expressed in transfected cells; host or cells: Xenopus laevis oocytes injected with cRNA; mutant made by Quikchange site-directed mutagenesis of hCFTR/pGEMHE
Source text: as §1
(§2) Human CFTR cRNAs used in electrophysiology experiments were prepared from constructs encoding WT-hCFTR in the pGEMHE vector (hCFTR/pGEMHE kindly provided by Dr. D. Gadsby, Rockefeller University). The mutants of hCFTR used in this study were prepared using site-directed mutagenesis with the Quikchange protocol (Stratagene, La Jolla, CA) and mutant constructs were verified by sequencing across the entire open reading frame before use. […]
(§3) Standard two-electrode voltage clamp (TEVC) techniques were used to study the effects of chemicals with application of reagents to the extracellular bath. […] Electrode resistances measured 0.5-1.4 MΩ when filled with 3 M KCl and measured in standard ND96 bath solution that contained (in mM): 96 NaCl, 2 KCl, 1 MgCl2, and 5 HEPES (pH 7.5). […]

[4] = target: T3, F508del-hCFTR (Homo sapiens, UniProt P13569, DEL508-508); assay: Two-electrode voltage clamp (TEVC) on Xenopus oocytes expressing F508del-hCFTR; type: cell-based; conditions: FIG. 2C
T3 construct: expressed in transfected cells; host or cells: Xenopus laevis oocytes injected with cRNA; mutant made by Quikchange site-directed mutagenesis of hCFTR/pGEMHE
Source text: as §1, §2, §3

[5] = target: hCFTR (Homo sapiens, UniProt P13569); conditions: cited from earlier work
[6] = extracellular exposure, TEVC, Xenopus oocytes

T1 sequence (P13569 whole entry): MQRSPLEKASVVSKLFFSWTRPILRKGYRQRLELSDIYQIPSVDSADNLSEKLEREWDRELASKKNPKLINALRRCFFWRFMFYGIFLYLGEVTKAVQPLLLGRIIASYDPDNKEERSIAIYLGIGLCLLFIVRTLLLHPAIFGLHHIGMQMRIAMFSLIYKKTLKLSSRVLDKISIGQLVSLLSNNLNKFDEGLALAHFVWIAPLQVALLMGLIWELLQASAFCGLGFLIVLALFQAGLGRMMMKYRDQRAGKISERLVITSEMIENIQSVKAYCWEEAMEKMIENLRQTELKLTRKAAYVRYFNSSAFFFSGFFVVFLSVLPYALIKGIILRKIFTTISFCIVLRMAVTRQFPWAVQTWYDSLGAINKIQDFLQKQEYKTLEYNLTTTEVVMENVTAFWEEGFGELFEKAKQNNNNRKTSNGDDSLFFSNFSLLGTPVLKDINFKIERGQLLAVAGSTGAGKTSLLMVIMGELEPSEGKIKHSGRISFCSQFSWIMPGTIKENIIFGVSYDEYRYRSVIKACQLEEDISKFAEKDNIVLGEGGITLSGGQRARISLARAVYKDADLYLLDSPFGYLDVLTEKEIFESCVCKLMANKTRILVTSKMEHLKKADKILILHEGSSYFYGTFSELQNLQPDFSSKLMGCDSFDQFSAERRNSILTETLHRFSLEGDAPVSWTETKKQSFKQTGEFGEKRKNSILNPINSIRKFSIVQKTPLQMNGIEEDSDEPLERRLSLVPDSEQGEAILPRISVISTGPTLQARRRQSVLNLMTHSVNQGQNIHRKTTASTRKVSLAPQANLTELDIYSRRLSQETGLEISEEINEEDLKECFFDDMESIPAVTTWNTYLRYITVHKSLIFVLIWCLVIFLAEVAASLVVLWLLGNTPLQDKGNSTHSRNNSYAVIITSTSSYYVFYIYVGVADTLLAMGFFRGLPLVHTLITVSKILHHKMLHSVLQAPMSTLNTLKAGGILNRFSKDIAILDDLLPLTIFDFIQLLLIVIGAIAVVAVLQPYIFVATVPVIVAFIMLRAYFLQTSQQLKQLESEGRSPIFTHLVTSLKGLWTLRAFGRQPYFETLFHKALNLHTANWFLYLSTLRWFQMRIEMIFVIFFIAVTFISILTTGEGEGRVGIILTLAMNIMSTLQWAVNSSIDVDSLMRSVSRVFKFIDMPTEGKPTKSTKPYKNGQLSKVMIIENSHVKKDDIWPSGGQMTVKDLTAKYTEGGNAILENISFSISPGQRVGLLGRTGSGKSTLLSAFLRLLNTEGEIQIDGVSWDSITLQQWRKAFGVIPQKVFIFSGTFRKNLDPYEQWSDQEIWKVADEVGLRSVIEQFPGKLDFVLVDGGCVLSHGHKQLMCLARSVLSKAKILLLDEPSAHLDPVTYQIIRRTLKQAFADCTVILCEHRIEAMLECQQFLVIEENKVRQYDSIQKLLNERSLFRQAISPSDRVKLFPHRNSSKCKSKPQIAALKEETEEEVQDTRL
T3 sequence (P13569 with tags, fused parts or gaps DEL508-508): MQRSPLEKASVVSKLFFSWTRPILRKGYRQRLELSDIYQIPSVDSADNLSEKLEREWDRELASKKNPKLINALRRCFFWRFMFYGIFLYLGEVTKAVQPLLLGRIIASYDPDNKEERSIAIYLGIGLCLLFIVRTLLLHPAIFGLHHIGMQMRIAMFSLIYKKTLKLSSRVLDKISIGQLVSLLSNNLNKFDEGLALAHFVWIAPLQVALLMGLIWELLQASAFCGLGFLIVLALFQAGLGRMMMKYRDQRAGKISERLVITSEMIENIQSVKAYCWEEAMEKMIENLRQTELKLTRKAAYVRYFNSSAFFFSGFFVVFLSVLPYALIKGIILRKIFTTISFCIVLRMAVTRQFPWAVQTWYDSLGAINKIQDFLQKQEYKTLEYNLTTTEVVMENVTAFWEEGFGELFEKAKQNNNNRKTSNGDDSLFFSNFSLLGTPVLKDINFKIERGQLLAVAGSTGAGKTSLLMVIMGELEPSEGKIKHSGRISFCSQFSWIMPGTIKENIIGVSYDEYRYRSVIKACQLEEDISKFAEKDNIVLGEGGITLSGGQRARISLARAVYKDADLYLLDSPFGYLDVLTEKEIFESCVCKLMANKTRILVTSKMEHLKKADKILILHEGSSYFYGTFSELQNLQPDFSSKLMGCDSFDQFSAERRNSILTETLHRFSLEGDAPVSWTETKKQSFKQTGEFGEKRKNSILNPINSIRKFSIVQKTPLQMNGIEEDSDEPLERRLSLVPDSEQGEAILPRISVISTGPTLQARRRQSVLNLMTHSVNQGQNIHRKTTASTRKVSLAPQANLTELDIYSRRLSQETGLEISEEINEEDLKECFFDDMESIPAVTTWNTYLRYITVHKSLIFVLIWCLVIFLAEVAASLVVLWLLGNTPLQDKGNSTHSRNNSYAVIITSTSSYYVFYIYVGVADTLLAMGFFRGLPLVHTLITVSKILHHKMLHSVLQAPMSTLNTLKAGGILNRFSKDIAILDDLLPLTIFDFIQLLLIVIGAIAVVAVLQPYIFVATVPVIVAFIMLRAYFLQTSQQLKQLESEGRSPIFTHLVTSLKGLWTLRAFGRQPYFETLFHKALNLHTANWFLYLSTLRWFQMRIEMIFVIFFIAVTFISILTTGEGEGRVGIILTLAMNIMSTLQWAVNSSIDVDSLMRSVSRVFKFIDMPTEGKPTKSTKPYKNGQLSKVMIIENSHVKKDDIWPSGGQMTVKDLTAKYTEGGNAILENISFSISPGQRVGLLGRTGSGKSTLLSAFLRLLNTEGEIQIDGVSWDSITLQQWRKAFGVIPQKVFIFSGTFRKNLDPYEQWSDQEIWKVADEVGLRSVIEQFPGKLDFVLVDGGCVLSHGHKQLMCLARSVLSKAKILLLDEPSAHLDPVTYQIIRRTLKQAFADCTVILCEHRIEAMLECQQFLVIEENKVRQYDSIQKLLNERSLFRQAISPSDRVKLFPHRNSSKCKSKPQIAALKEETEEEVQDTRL
hCFTR, sequence (P13569 whole entry): as the sequence (P13569 whole entry) above
mCFTR, sequence (P26361 whole entry): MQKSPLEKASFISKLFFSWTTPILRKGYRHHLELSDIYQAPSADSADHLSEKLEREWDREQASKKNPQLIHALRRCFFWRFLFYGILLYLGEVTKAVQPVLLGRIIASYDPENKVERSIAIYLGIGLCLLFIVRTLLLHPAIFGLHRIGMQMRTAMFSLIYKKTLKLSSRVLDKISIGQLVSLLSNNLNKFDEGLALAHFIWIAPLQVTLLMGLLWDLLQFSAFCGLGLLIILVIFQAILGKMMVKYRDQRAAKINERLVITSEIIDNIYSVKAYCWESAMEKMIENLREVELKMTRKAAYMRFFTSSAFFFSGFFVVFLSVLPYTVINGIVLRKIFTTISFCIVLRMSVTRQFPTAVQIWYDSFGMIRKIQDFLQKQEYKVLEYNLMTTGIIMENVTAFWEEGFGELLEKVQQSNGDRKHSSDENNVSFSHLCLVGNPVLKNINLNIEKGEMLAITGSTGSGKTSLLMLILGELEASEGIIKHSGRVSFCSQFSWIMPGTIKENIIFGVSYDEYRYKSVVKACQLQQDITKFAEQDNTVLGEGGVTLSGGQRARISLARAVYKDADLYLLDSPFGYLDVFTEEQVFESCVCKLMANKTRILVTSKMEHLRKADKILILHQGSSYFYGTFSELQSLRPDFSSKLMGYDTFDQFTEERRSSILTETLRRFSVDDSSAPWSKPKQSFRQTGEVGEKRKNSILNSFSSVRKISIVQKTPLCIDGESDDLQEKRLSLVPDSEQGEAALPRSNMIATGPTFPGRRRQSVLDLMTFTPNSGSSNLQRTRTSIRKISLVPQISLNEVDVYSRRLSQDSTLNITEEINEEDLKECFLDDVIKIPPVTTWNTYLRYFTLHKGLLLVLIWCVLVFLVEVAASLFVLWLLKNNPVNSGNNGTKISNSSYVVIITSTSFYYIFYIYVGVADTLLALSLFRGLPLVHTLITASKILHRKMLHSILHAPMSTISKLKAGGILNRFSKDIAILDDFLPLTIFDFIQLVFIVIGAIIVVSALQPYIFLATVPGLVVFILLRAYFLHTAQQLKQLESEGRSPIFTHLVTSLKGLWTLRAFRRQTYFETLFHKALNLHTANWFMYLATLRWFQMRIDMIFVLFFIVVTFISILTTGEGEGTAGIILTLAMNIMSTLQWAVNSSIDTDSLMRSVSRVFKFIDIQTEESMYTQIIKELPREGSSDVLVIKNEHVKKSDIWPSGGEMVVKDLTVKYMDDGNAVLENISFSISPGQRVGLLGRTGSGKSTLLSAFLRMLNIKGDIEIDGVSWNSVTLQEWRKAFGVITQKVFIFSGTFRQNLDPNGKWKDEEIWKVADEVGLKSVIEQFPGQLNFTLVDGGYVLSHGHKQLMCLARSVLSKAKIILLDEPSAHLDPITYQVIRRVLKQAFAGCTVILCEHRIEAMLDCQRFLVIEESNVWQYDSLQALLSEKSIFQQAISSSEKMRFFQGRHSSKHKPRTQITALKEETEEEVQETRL
T2 sequence (P13569 whole entry R352A): as the sequence (P13569 whole entry) above, with R352A counted along it

SMILES: COc1ccc(Cl)cc1C(=O)NCCc1ccc(S(=O)(=O)NC(=O)NC2CCCCC2)cc1 [glibenclamide]
- Potentiation of mCFTR [1]: potentiate

SMILES: O=C(CNc1ccc2ccccc2c1)N/N=C/c1cc(Br)c(O)c(Br)c1O [GlyH-101]
- Potentiation of mCFTR [1]: potentiate

SMILES: O=C(NCc1ccc(Oc2ccccc2)cc1)c1nc(-c2cc(Br)c(O)c(Br)c2)no1 [iOWH-032, 3-(3,5-dibromo-4-hydroxyphenyl)-N-(4-phenoxybenzyl)-1,2,4-oxadiazole-5-carboxamide]
- Kd ([2]; inhibition component, read-out: Kd of inhibition of WT-hCFTR): 6.1 nM
- Kd ([2]; potentiation component, read-out: Kd of potentiation of WT-hCFTR): 0.64 nM
- Potentiation of WT-hCFTR channels [2, 6]: potentiated
- Inhibition of R352A human CFTR [3]: did not inhibit
- Potentiation of R352A human CFTR [3]: potentiated
- Inhibition of F508del human CFTR [4]: did not inhibit
- Potentiation of F508del human CFTR [4, 6]: potentiated

SMILES: O=C(O)c1cc([N+](=O)[O-])ccc1NCCCc1ccccc1 [NPPB]
- Potentiation of hCFTR ([5]; channel incompletely phosphorylated, activated by a low concentration of PKA): potentiate
- Potentiation of hCFTR ([5]; extremely high concentrations of NPPB): potentiate
